Laboratory results from patent US20070122377A1, “Compositions and methods of treatment” (priority 2003, published 2007).

Key:
[1] = tested on: U937 cells; assay: phosphodiesterase IV-b mRNA in U937 cells (Example 7, FIG. 9); assay type: cell-based, human; details: four hours of incubation; PGE 1×10^-6, 19-hydroxy PGE2 5×10^-6
Procedure: After the incubation (20 hours), cells were pelleted and the mRNA was extracted with Tri-reagent (Sigma, Poole, UK). Total RNA was obtained by addition of chloroform and subsequent isopropanol precipitation. RNA was reverse transcribed with reverse transcriptase (Applied Biosystems) and random hexamers (Applied Biosystems). Probes and primers for IL-10 and IL-12 (p35) were designed using Primer Express (Applied Biosystems) and were as follows:
Template was amplified in a Taqman 7700 machine for 40 cycles using FAM/TAMRA dyes on the probe. The Applied Biosystems kit was used to amplify and detect ribosomal (18S) RNA (using VIC/TAMRA dyes) as an internal control in the same reaction tube. After 40 cycles the Ct (related to cycle number at which signal appears) for the FAM and the 18S (VIC) were recorded and […] relative quantitation was achieved using the formula 2^−ΔΔCt where Δ refers to the difference between the FAM and VIC signal related to an standard comparator included in each run.
The mRNA for phosphodiesterase IV-b was measured as described in Example 5 above. mRNA was extracted after four hours of incubation. The concentration of the PGE was 1×10^−6 and that of the 19-hydroxy PGE2 was 5×10^−6. The following primers and Taqman probe were used for quantitation of PDE IV b mRNA.

[2] = tested on: U937 cells; assay: IL-10 ELISA in U937 cells, prostaglandins in presence and absence of rolipram (Examples 5 and 6, FIGS. 7 and 8); assay type: cell-based, human
Procedure: U 937 cells were grown in RPP (PAA Laboratories) medium with 10% fetal calf serum added (PAA Laboratories). 2×10^6 cells per flask were treated with prostaglandin E2 at 10^−6 Molar or with Rolipram (4×10^−6) for 24 hours. Medium was removed at 20 hours and analysed by ELISA. A capture antibody (Pharmingen) was coated onto 96 well plates and culture medium was added each well. A standard curve was created with recombinant IL-10 protein. After incubation and washing, a biotin labelled monoclonal antibody (Pharmingen) was added and following incubation and washing, peroxidase labelled streptavidin was added. After washing a tetramethyl benzidine substrate was added and colour developed in proportion to IL-10 in the original sample/standard. Colour was read using a plate photometer (Labsystems, Multiskan). Mean concentrations (N=3) in controls with no lipopolysaccharide (LPS) were 38.2 pg/ml and in the presence of LPS (100 nM) they were 43.9 […].
The effect of PGE1, PGE2, 19 hydroxy PGE1 and 19 hydroxy PGE2 on the stimulation of IL-10 in the presence and absence of rolipram was investigated as described above in Example 5. IL-10 levels were measured using an ELISA assay (R&D Ltd, Oxford). Measurement was performed according to the manufacturer's instructions.

[3] = tested on: U937 cells; assay: Release of IL-10 protein from U937 monocytes in response to PGE and GMCSF (Example 3, FIG. 4); assay type: cell-based, human
Procedure: Cells were treated for 4 hours with the agents indicated below the graph, washed to remove the treatment and incubated for a further 20 hours before the medium was assayed for IL-10. PGE refers to prostaglandin E2, and GM refers to GMCSF.
U937 cells were grown in RPMI (PAA Laboratories) medium with 10% foetal calf serum (PAA Laboratories) added.

[4] = tested on: PDE; details: non-specific PDE inhibitor; cited from earlier work
[5] = tested on: U937 cells; assay: IL-10 and TNFα mRNA in U937 cells after differentiating agents (Example 9, FIG. 13); assay type: cell-based, human
Procedure: U937 (human monocyte cell line) cells were grown in RPMI (PAA Laboratories) medium with 10% fetal calf serum added (PAA Laboratories). Cells were treated with prostaglandin E2 at 10^−6 Molar, Rolipram 10^−6 Molar, Forskolin 50×10^−6 Molar with or without GMCSF at 5 ng/ml for 48 hours. Cells were pelleted and the mRNA was extracted with Tri reagent (Sigma, Poole, UK). Total RNA was obtained by addition of chloroform and subsequent isopropanol precipitation. RNA was reverse transcribed with reverse transcriptase (Applied Biosystems) and random hexamers (Applied Biosystems). Probes and primers for amplification and detection of IL-10 were designed using Primer Express (Applied Biosystems) and are as follows:
As for Example 4 but MRNA for TNFα is also included.
Data is shown as the ratio of IL-10 mRNA/TNFα mRNA. P=PMA=Phorbol myristoyl acetate; F=Fsk=Forskolin g=GMCSF, C=vehicle control.

[6] = tested on: type IV PDE; details: cited from earlier work; for IC50: type IV PDE selective inhibitor
[7] = cited from earlier work

Molecule: 19-hydroxy PGE2
- PDE activity / PDE message (phosphodiesterase IV-b mRNA) [1]: increase
- stimulation of IL-10 in the presence of a PDE inhibitor [2]: increased strikingly
- stimulation of IL-10 in the presence of GMCSF [3]: increased strikingly

Molecule: CC(C)Cn1c(=O)n(C)c(=O)c2[nH]cnc21 [IBMX, 3-isobutyl-1-methylxanthine]
- IC50 [4]: 2000 to 50000 nM

Molecule: CCCCC[C@H](O)/C=C/[C@H]1[C@H](O)CC(=O)[C@@H]1C/C=C\CCCC(=O)O [PGE, prostaglandin E2]
- PDE activity / PDE message (phosphodiesterase IV-b mRNA) [1]: increase
- stimulation of IL-10 in the presence of a PDE inhibitor [2]: increased strikingly
- stimulation of IL-10 in the presence of GMCSF [3]: increased strikingly

Molecule: CCCCCCCCCCCCCC(=O)O[C@@H]1[C@@H](C)[C@@]2(O)[C@@H](C=C(CO)C[C@]3(O)C(=O)C(C)=C[C@@H]23)[C@@H]2C(C)(C)[C@]12OC(C)=O [PMA, Phorbol myristoyl acetate]
- IL-10 mRNA ([5]; PMA 2×10^-7 M as differentiating agent): increased
- TNFα mRNA ([5]; differentiation with the agent): increased

Molecule: CCCCOc1cc(CC2CNC(=O)N2)ccc1OC (stereo not shown) [Ro-20-1724, 4-[3-butoxy-4-methoxybenzyl]-2-imidazolidinone]
- IC50 [6]: 2000 nM

Molecule: COc1ccc(C2CNC(=O)C2)cc1OC1CCCC1 (stereo not shown) [rolipram, 4-[3-cyclopentyloxy-4-methoxyphenyl]-2-pyrrolidinone]
- IC50 [6]: 800 nM

Molecule: Cn1c(=O)c2[nH]cnc2n(C)c1=O [theophylline]
- times less effective than rolipram ([6]; non-selective inhibitor compared with type IV selective rolipram): 30 times

B1: GM-CSF: Murine Granulocyte macrophage colony stimulating factor from Peprotech, catalog number 315-03 (protein, UniProt P01587 18-141, looked up)
Granulocyte-macrophage …: APTRSPITVTRPWKHVEAIKEALNLLDDMPVTLNEEVEVVSNEFSFKKLTCVQTRLKIFEQGLRGNFTKLKGALNMTASYYQTYCPPTPETDCETQVTTYADFIDSLKTFLTDIPFECKKPGQK
- solubility in aqueous solution [7]: Freely soluble
